Paper PMC4810412, “Identification of a Fragment-Based Scaffold that Inhibits the Glycosyltransferase WaaG from Escherichia coli” (Antibiotics, 2016)

Target: WaaG (α-1,3-glucosyltransferase I) (Escherichia coli, UniProt P25740)
Assay: […]-glucose transfer from UDP-Glc to truncated LPS, SDS-PAGE autoradiography, dose-response
Format: biochemical

Sequence of WaaG (α-1,3-glucosyltransferase I) (P25740 whole entry, the tested form may be a part): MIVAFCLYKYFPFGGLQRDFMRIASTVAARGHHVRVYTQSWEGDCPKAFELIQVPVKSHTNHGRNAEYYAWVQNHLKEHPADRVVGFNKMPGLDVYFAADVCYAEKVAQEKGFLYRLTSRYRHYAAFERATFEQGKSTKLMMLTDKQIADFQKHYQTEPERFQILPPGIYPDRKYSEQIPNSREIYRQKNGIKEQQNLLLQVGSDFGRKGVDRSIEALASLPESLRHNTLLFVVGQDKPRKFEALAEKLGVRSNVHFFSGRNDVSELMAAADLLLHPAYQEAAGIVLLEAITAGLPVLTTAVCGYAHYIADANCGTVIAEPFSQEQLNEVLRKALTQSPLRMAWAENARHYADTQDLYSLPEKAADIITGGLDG

Nc1nc(-c2ccc(O)cc2)cs1 [L1, 4-(2-amino-1,3-thiazol-4-yl)phenol]
IC50: 1000 µM
